Results from paper PMC9317902, “Multi-Targeting Approach in Glioblastoma Using Computer-Assisted Drug Discovery Tools to Overcome the Blood–Brain Barrier and Target EGFR/PI3Kp110β Signaling” (Cancers, 2022).

Assays:
U87MG cells [1] = assay: BBB-GB co-culture model HBMEC:U87MG; assay type: cell-based
Experimental: To assess molecule cytotoxicity in GB cells after crossing the HBMEC monolayer, a co-culture BBB-GB model was used. HBMEC were seeded in the Transwell apparatus as described above. After 5 days, U87MG or U87MG-wtEGFR cells were seeded (1.2 × 10^5 cell/mL) in the lower chamber. After 3 days of co-culture, upper chamber content was replaced with fresh medium (control) or medium containing each molecule at respective EC50. After 2 h, inserts were removed and tested for barrier integrity by TEER readings and immunofluorescence analysis, whereas GB cells were maintained in culture for 24 h to further assess cell viability by MTT assay.

U87MG cells [2] = assay: Apoptotic cells by nuclear morphology (Hoechst) in U87MG; assay type: cell-based; conditions: at EC50, 9 h
phospho-AKT = assay: Immunofluorescence of phospho-AKT in U87MG cells; assay type: cell-based; conditions: at EC50, 1-9 h
U87MG cells [3] = assay: MTT cell viability, U87MG; assay type: cell-based; conditions: U87MG, 24 h
Experimental: To analyze molecules’ cytotoxicity, U87MG and U87MG-wtEGFR cells were seeded into 96-well plates at a density of 2.5 × 10^4 cells/mL, and after 48 h were incubated with 0.1, 1, 10, or 100 µM of each molecule diluted in (non-supplemented) cell medium for 24 h. The half-maximal effective concentration (EC50) of the most cytotoxic compounds was quantified. Dose–response data were also obtained for treatment with triton X-100 (positive control) and DMSO (vehicle; negative control). The cytotoxicity of selected molecules from initial screening was tested in HBMEC at 100 µM for 24 h. HBMEC were seeded at a density of 8 × 10^4 cell/mL in 96-well plates and after 48 h were incubated with the molecules.
In screening assays, cell viability was evaluated using thiazolyl blue tetrazolium bromide (MTT). Briefly, a culture medium containing 0.5 mg/mL of MTT was added to each well for 90 min at 37 °C. The supernatant was removed and the formed formazan crystals in viable cells were solubilized with 0.04 N HCl in isopropanol solution. The absorbance was recorded using a microplate reader (Zenyth 3100, Anthos Labtec Instruments, Salzburg, Austria) at 595 nm, and values of cell viability were calculated as percentage of negative control.

HBMEC monolayer = assay: Transwell in vitro BBB model: transport (UPLC-MS/MS) and barrier integrity; assay type: in vitro ADME, human
Experimental: To evaluate molecules’ BBB transport, a well-validated two-chamber BBB model, relying on the use of a microporous semipermeable membrane (Transwell insert) that separates the upper (luminal: “blood side”) and the lower (abluminal: “brain side”) chambers, was used as usual in our team. Briefly, HBMEC were seeded on polyester inserts (0.4 μm, Corning Costar Corp., New York, NY, USA) at a density of 8 × 10^4 cell/insert and treated after 8 days in culture. Inserts were coated with rat-tail collagen-I (BD Biosciences, Erembodegem, Aalst, Belgium) before seeding. Transport assays were conducted in Hank’s Balanced Salt Solution (HBSS, Gibco, Waltham, MA, USA) with calcium and magnesium, supplemented with 0.1% FBS.
Samples from upper and lower chambers were deproteinized using acetonitrile (ACN) (1:3) in ice-cold conditions, centrifuged at 15,300× g for 5 min at 4 °C and the respective supernatants were frozen until subsequent analysis.
The identification and quantification of molecules of interest were achieved by ultra-performance liquid chromatography–tandem mass spectrometry (UPLC-MS/MS) analysis using a triple quadrupole and Masslynx 4.1 software (Acquity TQ Waters). The separation of analytes was performed using a reversed-phase column Purospher STAR, RP-18 endcapped, 2 µm; Hibar HR 50-2.1 (Merck, Rahway, NJ, USA) at 35 °C, and a linear gradient (0.1% formic acid (A): ACN with 0.1% formic acid (B)) at a flow rate of 0.30 mL/min. The detection of analytes was based on electrospray ionization in the positive mode (ESI+) and acquisition in multiple reaction monitoring mode (MRM) at the following settings: ESI capillary voltage 3.0 kV, cone voltage 30 V, extractor voltage 1 V, RF lens voltage 0.1 V, desolvation gas flow 750 L/h at 350 °C, cone gas flow 50 L/h at 120 °C. Calibration curves were based on external standards using at least 8-points within the intended range, injected as duplicates. Analytes were quantified with a maximum deviation of 15% between the MRM1/MRM2 ratio. Each sample was injected in triplicate. Endothelial transport was calculated based on the ratio of lower compartment concentration and the sum of upper and lower compartments concentrations.
HBMEC monolayer integrity was ensured during BBB transport assays by TEER measurements and sodium-fluorescein paracellular permeability assessment, as previously described. TEER readings were performed using an EndOhm^TM chamber coupled to an EVOMX resistance meter (World Precision Instruments, Inc., Sarasota, FL, USA) and sodium fluorescein levels were measured using a Hitachi F-2000 fluorescence spectrophotometer.

P-gp = P-gp expression in HBMEC (immunofluorescence); assay type: cell-based, human; conditions: U87MG EC50, 9 h
Text: HBMEC in coverslips were stained for: the junctional protein β-catenin (1:100, Thermo Fisher Scientific, Waltham, MA, USA, #71-2700), the cytoskeleton protein F-actin (1:1000, Phalloidin dye, Abcam, Cambridge, UK, #ab17675), and the efflux transporter P-gp (1:50, Santa Cruz Biotechnology, Dallas, TX, USA, #sc-390883). HBMEC seeded on polyester inserts for transport assays were also stained for the junctional protein zonula occludens-1 (ZO-1, 1:200, Thermo Fisher Scientific, Waltham, MA, USA, #40-2200) and the cytoskeleton protein vimentin (1:100, Thermo Fisher Scientific, Waltham, MA, USA, #MA3745).
Incubations with primary antibodies occurred overnight at 4 °C. Incubation with the secondary antibodies Alexa Fluor 555 (1:500, Thermo Fisher Scientific, Waltham, MA, USA, #A21428) or Alexa Fluor 488 (1:500, Thermo Fisher Scientific, Waltham, MA, USA, #A11001) lasted for 1 h at room temperature. Nuclei were counterstained with Hoechst 33342 dye (1:1000, Thermo Fisher Scientific, Waltham, MA, USA, #33342) for 10 min. Before mounting with DPX (Merck Millipore, Burlington, MA, USA), cells were dehydrated with methanol. Negative controls were performed.
All acquired images were treated in ImageJ (NIH, Bethesda, MD, USA). Assessment of nuclear morphology following Hoechst staining was evaluated. For fluorescence intensity measures, the regions of interest were selected in Image J, and corresponding integrated densities were obtained. The representative 3D plots for BBB integrity were obtained by merged pixel intensity using the surface plot tool of Image J. For F-actin stress fibers analysis, the plot profile tool of Image J was used considering each defined cell-ferret diameter.

Q: Which “TEER of HBMEC” value (U87MG cells [1]; 2 h at EC50, mono- or co-culture system) does the source give for `CCCCN1CCCc2cc(CN(CCN3CCOCC3)C(=S)Nc3cc(F)cc(F)c3)ccc21` [Mol 19] here?
A: The value was “TEER readings were not decreased”.

Q: And the “U87MG cell viability in co-culture system” value (U87MG cells [1]; added to upper chamber at EC50 for 2 h, MTT after 24 h)?
A: The value was “impaired”.

Q: What about the apoptotic cells (U87MG cells [2]) of the same compound?
A: Its apoptotic cells is “about 35%”.

Q: And the “phosphorylated AKT expression compared with control” value (phospho-AKT)?
A: The value was “decreased expression”.

Q: And the EC50 (U87MG cells [3]; Homo sapiens, U-87 MG)?
A: The EC50 was 104 ± 14.9 µM.

Q: And the cell death (U87MG cells [3]; screening 0.1-100 µM)?
A: Its cell death is at least 50%.

Q: And the “HBMEC permeability to sodium fluorescein (Pe)” value (HBMEC monolayer; U87MG EC50)?
A: Its value is “no statistical differences between treated cells and control”.

Q: What about the “TEER of HBMEC monolayer” value (HBMEC monolayer; U87MG EC50, 30 min) of the same compound?
A: Its value is “None of the molecules markedly changed the TEER”.

Q: And the “endothelial transport efficiency, 30 vs. 120 min” value (HBMEC monolayer; UPLC-MS/MS)?
A: Its value is “transported across the HBMEC monolayer in a time-dependent manner”.

Q: What about the “transport across the BBB endothelium” value (HBMEC monolayer; UPLC-MS/MS, 30 and 120 min) of the same compound?
A: Its value is “could be transported across the BBB endothelium”.

Q: What about the “P-gp expression (mean intensity) in HBMEC” value (P-gp) of the same compound?
A: The value was “No significant changes in P-gp expression”.
